Series [1] addresses T1, Phosphatidylinositol 4,5-bisphosphate 3-kinase catalytic subunit delta isoform (Homo sapiens) (UniProt O00329).
T1 sequence (whole entry): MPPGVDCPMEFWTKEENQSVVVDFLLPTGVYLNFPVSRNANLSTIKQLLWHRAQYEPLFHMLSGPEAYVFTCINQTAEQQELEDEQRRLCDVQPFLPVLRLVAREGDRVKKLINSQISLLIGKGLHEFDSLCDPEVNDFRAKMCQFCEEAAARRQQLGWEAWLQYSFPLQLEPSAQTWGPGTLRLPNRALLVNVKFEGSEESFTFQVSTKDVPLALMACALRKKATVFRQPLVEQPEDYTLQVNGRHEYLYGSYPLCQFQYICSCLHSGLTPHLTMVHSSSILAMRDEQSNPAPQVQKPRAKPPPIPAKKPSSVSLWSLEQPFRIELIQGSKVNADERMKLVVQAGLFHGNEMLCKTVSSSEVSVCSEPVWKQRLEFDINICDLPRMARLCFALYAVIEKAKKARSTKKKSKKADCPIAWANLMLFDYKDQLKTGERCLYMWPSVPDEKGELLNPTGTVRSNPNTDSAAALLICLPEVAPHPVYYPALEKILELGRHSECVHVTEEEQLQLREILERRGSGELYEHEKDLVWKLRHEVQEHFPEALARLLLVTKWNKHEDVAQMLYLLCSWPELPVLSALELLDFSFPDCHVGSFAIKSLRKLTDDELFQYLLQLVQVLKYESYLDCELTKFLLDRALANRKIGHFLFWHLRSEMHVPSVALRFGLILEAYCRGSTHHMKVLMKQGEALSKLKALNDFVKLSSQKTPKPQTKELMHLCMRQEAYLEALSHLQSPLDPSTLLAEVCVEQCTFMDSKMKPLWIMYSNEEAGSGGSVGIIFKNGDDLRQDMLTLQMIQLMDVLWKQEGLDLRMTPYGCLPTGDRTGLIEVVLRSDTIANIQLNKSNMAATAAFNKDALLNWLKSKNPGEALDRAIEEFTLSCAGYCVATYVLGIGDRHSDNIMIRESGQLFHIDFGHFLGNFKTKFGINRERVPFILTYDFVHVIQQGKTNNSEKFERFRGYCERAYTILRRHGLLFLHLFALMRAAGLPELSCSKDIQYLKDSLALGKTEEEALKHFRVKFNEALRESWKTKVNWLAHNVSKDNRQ
Kind of series: Antagonist activity at PI3Kdelta (unknown origin) assessed as inhibition rate at 20 nM using PIP2 as substrate in presence of ATP incubated for 30 to 60 mins by ADP-glo based luminescence assay relative to control. The following applies: time 30-60 min.

In series [2] the target is Phosphatidylinositol 4,5-bisphosphate 3-kinase catalytic subunit gamma isoform (Homo sapiens, UniProt P48736). The series is described as follows: Antagonist activity at PI3Kgamma (unknown origin) assessed as inhibition rate at 20 nM using PIP2 as substrate in presence of ATP incubated for 30 to 60 mins by ADP-glo based luminescence assay relative to control. Particulars: time 30-60 min. On the technique in general: ADP-Glo turns the ADP formed in a reaction into a luminescent signal.
Sequence of Phosphatidylinositol 4,5-bisphosphate 3-kinase catalytic subunit gamma isoform (P48736 whole entry, looked up, canonical isoform): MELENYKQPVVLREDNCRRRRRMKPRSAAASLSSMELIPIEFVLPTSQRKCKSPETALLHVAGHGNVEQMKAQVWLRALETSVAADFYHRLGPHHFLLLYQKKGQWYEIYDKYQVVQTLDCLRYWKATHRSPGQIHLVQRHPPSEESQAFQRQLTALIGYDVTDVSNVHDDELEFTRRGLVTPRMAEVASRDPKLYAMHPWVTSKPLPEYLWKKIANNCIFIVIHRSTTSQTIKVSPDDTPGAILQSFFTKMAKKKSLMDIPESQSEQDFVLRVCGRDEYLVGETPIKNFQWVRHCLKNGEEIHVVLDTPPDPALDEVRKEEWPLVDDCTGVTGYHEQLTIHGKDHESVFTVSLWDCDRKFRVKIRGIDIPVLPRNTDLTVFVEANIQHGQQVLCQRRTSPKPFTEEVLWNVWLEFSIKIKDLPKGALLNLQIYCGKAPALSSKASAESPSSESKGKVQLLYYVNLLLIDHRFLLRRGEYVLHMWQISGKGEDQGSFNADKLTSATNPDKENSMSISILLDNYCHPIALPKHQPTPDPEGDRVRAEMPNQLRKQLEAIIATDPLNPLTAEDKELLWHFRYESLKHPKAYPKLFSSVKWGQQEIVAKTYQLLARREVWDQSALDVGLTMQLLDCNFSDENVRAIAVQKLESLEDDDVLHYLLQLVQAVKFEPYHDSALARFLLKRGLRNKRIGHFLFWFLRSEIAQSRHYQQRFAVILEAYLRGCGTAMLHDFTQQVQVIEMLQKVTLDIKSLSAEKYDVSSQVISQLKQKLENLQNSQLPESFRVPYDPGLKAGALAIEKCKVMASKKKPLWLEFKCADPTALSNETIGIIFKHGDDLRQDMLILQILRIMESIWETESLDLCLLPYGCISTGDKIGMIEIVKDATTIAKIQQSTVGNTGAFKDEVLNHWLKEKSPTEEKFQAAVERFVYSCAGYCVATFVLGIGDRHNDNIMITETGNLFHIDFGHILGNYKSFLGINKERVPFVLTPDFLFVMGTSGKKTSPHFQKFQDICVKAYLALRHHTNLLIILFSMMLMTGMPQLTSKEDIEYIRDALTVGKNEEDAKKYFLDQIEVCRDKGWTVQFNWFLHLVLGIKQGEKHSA

Series [3] concerns Jurkat. Kind of series: Cytotoxicity against human Jurkat cells assessed as reduction in cell viability incubated for 24 hrs by CCK-8 assay. In kind it is functional, cell-based. Background: Tetrazolium assays rely on reduction of a dye to a coloured formazan, in cell work by metabolically active cells.
The test system of series [4] is Huh-7. Kind of series: Cytotoxicity against human Huh-7 cells assessed as reduction in cell viability incubated for 24 hrs by CCK-8 assay. The series is classed as functional, cell-based. Particulars: Huh-7, 24 h.
The subject of series [5] is RAW264.7. Kind of series: Cytotoxicity against mouse RAW264.7 cells assessed as reduction in cell viability incubated for 24 hrs by CCK-8 assay. The series is classed as functional, cell-based. Particulars: RAW264.7, 24 h.
The test system of series [6] is THP-1. Kind of series: Cytotoxicity against human THP-1 cells assessed as reduction in cell viability incubated for 24 hrs by CCK-8 assay. The series is classed as functional, cell-based. Particulars: THP-1, 24 h.
The test system of series [7] is B16-F10. The series is described as follows: Cytotoxicity against mouse B16-F10 cells assessed as reduction in cell viability incubated for 24 hrs by CCK-8 assay. The series is classed as functional, cell-based. Particulars: B16-F10, 24 h.
The test system of series [8] is A549. Kind of series: Cytotoxicity against human A549 cells assessed as reduction in cell viability incubated for 24 hrs by CCK-8 assay. In kind it is functional, cell-based. The following applies: A549, 24 h.
The subject of series [9] is 4T1. Kind of series: Cytotoxicity against mouse 4T1 cells assessed as reduction in cell viability incubated for 24 hrs by CCK-8 assay. In kind it is functional, cell-based. Particulars: 4T1, 24 h.
The test system of series [10] is MCF7. The series is described as follows: Cytotoxicity against human MCF7 cells assessed as reduction in cell viability incubated for 24 hrs by CCK-8 assay. The series is classed as functional, cell-based. Particulars: MCF7, 24 h.
Series [11] concerns MDA-MB-231. The series is described as follows: Cytotoxicity against human MDA-MB-231 cells assessed as reduction in cell viability incubated for 24 hrs by CCK-8 assay. The series is classed as functional, cell-based. The following applies: MDA-MB-231, 24 h.
The test system of series [12] is T47D. The series is described as follows: Cytotoxicity against human T47D cells assessed as reduction in cell viability incubated for 24 hrs by CCK-8 assay. The series is classed as functional, cell-based.
Series [13] concerns HepG2. The series is described as follows: Cytotoxicity against human HepG2 cells assessed as reduction in cell viability incubated for 24 hrs by CCK-8 assay. The following applies: HepG2, 24 h. In kind it is functional, cell-based.
The nature of series [14]: Cytotoxicity against mouse L929 cells assessed as reduction in cell viability incubated for 24 hrs by CCK-8 assay. In kind it is toxicity, cell-based.

For orientation: inhibition means the drop in the measured response relative to a control, in per cent. Consider `CC(NC(=O)c1cccc2c1OCCO2)c1cc2cccc(Cl)c2c(=O)n1-c1ccccc1` (stereo not drawn), for which the inhibition in series [1] turned out to be 32%; in [2], 9%.
The matching figures for `COc1ccc(C#Cc2cccc3cc(C(C)NC(=O)c4cnn5cccnc45)n(-c4ccccc4)c(=O)c23)cc1` (stereo not drawn): 25% and 25%.
For the compound `CC(Nc1ncnc2[nH]cnc12)c1cc2cccc(C#Cc3ccccc3)c2c(=O)n1-c1ccccc1` (stereo not drawn), the results for the inhibition in series [1] and in series [2] (filed as antagonist) were 23% and 51%, respectively.
The matching figures for `CC(Nc1ncnc2[nH]cnc12)c1cc2cccc(C#Cc3ccc(N(C)C)cc3)c2c(=O)n1-c1ccccc1` (stereo not drawn): 14% and 46%.
For `COCC#Cc1cccc2cc(C(C)NC(=O)c3c(N)nn4cccnc34)n(-c3ccccc3)c(=O)c12` (stereo not drawn), the figures for the inhibition in [1] and in series [2] were 27% and 35%, respectively.
For the compound `CCCCC#Cc1cccc2cc(C(C)Nc3ncnc4[nH]cnc34)n(-c3ccccc3)c(=O)c12` (stereo not drawn), the results for the inhibition in series [1] and in [2] were 21% and 33%, respectively.
The matching figures for `CC(NC(=O)c1cncc(N2CCOCC2)n1)c1cc2cccc(Cl)c2c(=O)n1-c1ccccc1` (stereo not drawn): 14% and 13%.
The matching figures for `CC(NC(=O)c1c(N)nn2cccnc12)c1cc2cccc(C#CCN)c2c(=O)n1-c1ccccc1` (stereo not drawn): 25% and 38%.
The matching figures for `CC(Nc1ncnc2c1ncn2C)c1cc2cccc(Cl)c2c(=O)n1-c1ccccc1` (stereo not drawn): 28% and 35%.
As to `CC(NC(=O)c1c(N)nn2cccnc12)c1cc2cccc(C#Cc3ccc(C(F)(F)F)cc3)c2c(=O)n1-c1ccccc1` (stereo not drawn), the inhibition in [1] was found to be 17%; in series [2] it was 37%.
The matching figures for `CC(NC(=O)c1c(N)nn2cccnc12)c1cc2cccc(C#Cc3ccccc3)c2c(=O)n1-c1ccccc1` (stereo not drawn): 25% and 27%.
The matching figures for `CC(NC(=O)c1cnn2cccnc12)c1cc2cccc(C#Cc3ccccc3)c2c(=O)n1-c1ccccc1` (stereo not drawn): 22% and 24%.
The matching figures for `CC(NC(=O)c1cncc2ccccc12)c1cc2cccc(Cl)c2c(=O)n1-c1ccccc1` (stereo not drawn): 3% and 2%.
As to `CC(NC(=O)c1cnn2cccnc12)c1cc2cccc(C#Cc3ccc(N(C)C)cc3)c2c(=O)n1-c1ccccc1` (stereo not drawn), the results for the inhibition in [1] and in series [2] were 28% and 22%, respectively.
The matching figures for `CC(NC(=O)c1ccncc1N)c1cc2cccc(Cl)c2c(=O)n1-c1ccccc1` (stereo not drawn): 24% and 33%.
The term IC50 denotes the concentration that gives 50% inhibition. As for `C[C@H](Nc1ncnc2nc[nH]c12)c1cc2cccc(Cl)c2c(=O)n1-c1ccccc1` [DUVELISIB], the concentration for half-maximal inhibition (IC50) was 3.17 µM in series [3]; 6.57 µM in series [4]; 13.2 µM in series [5]; 14.9 µM in series [6]; more than 100 µM in series [7]; more than 100 µM in series [8]. Besides, the concentration for half-maximal inhibition (IC50) was 22.9 µM in series [9]; more than 100 µM in series [10]; 9.76 µM in [11]; more than 100 µM in series [12]; more than 100 µM in series [13]. Also, the inhibition in series [1] (filed as antagonist) was 66.7%; in [2], 37%.
With `COCC#Cc1cccc2cc(C(C)Nc3ncnc4[nH]cnc34)n(-c3ccccc3)c(=O)c12` (stereo not drawn), the inhibition in series [1] was found to be 26%; in series [2] (filed as antagonist) it was 41%.
For the compound `CCCc1ccc(C#Cc2cccc3cc(C(C)Nc4ncnc5[nH]cnc45)n(-c4ccccc4)c(=O)c23)cc1` (stereo not drawn), the inhibition was 8% in [1] and 13% in series [2].
The matching figures for `CC(NC(=O)c1ccc2occc2c1)c1cc2cccc(Cl)c2c(=O)n1-c1ccccc1` (stereo not drawn): 8% and 11%.
On to `C[C@H](Nc1ncnc2[nH]cnc12)c1cc2cccc(Cl)c2c(=O)n1-c1ccccc1` [DUVELISIB], for which the IC50 at 24 h in [14] is more than 100 µM.
In the case of `CCCC#Cc1cccc2cc(C(C)NC(=O)c3c(N)nn4cccnc34)n(-c3ccccc3)c(=O)c12` (stereo not drawn), the inhibition in [1] came to 29%; in series [2], 24%.
Take `CC(Nc1ncnc2[nH]cnc12)c1cc2cccc(C#CC3CC3)c2c(=O)n1-c1ccccc1` (stereo not drawn): the inhibition in series [1] (filed as antagonist) worked out at 44%; in series [2] (filed as antagonist), 43%.
For the compound `CC(NC(=O)c1c(N)nn2cccnc12)c1cc2cccc(C#Cc3ccc(N(C)C)cc3)c2c(=O)n1-c1ccccc1` (stereo not drawn), the inhibition in [1] came out at 18%; in series [2], 28%.
As for `CC(Nc1ncnc2[nH]cnc12)c1cc2cccc(C#Cc3ccc(C(F)(F)F)cc3)c2c(=O)n1-c1ccccc1` (stereo not drawn), the inhibition in series [1] worked out at 14%; in [2] (filed as antagonist) it was 44%.
Take `CCCc1ccc(C#Cc2cccc3cc(C(C)NC(=O)c4c(N)nn5cccnc45)n(-c4ccccc4)c(=O)c23)cc1` (stereo not drawn): the inhibition in series [1] came to 27%; in series [2], 22%.
As to `COc1ccc(C#Cc2cccc3cc(C(C)NC(=O)c4c(N)nn5cccnc45)n(-c4ccccc4)c(=O)c23)cc1` (stereo not drawn), the inhibition in series [1] turned out to be 19%; in [2], 31%.
The matching figures for `CC(NC(=O)c1c(N)nn2cccnc12)c1cc2cccc(C#CC3CC3)c2c(=O)n1-c1ccccc1` (stereo not drawn): 17% and 33%.
For the compound `CC(NC(=O)c1cnn2cccnc12)c1cc2cccc(C#Cc3ccc(C(F)(F)F)cc3)c2c(=O)n1-c1ccccc1` (stereo not drawn), the inhibition in series [1] (filed as antagonist) amounted to 40%; in series [2] it was 27%.
For `CC(NC(=O)c1cnn2cccnc12)c1cc2cccc(Cl)c2c(=O)n1-c1ccccc1` (stereo not drawn), the inhibition is 13% in [1] and 36% in series [2].
